Test results reported in paper PMC7525492, “Microtiter plate-based antibody-competition assay to determine binding affinities and plasma/blood stability of CXCR4 ligands” (Scientific Reports, 2020).
Values joined by “and” are separate entries in the source; they are usually repeats but may differ in a detail not shown here. Equal entries are not always repeated. Structures can show the parent of a compound that is named as a salt. Where two headings read alike, the source gives them in different places. Bridge positions count the residues as written; N and C are the ends. Square brackets hold non-standard residues; d marks the D form. Ends that are not written are not given here. Peptide text beside a SMILES is read from it. I, II: the chains in the order shown. 2Nal = N[C@@H](Cc1ccc2ccccc2c1)C(=O)O; Lys(iPr) = CC(C)NCCCC[C@H](N)C(=O)O

Legend:
[1] = Functional stability in human plasma read out by 12G5 competition; type: in vitro ADME; settings: for half-life at 20 µM: human, plasma, read-out: half-life t1/2 in plasma; for half-life at 20 µM / half-life t1/2 in plasma / 12G5-competing activity after incubation in plasma / ability to block 12G5 binding after incubation in plasma: 37 °C; for 12G5-competing activity after incubation in plasma: 24 h (AMD3100 also 48 h); for ability to block 12G5 binding after incubation in plasma: plasma of the individual donor, up to 24 h
Experimental: The t = 0 sample was immediately taken and stored at − 80 °C. Plasma/compound or blood/compound mixture was then transferred to 37 °C and shook at 350 rpm. At given time points samples were taken and stored at − 80 °C. For measuring the functional activity of the plasma/peptide samples, the mixtures were thawed and serially diluted in ice cold PBS (starting with 100% sample). 12G5-APC antibody competition was then performed as described before. Note, that during the competition process the samples are 1:1 diluted with the antibody and the highest plasma concentration on cells was 50%. For blood/peptide functional stability, samples were thawed and centrifuged at 14,000 rpm for 3 min at 4 °C to remove cells and debris. The supernatant was then serially diluted in PBS (starting with 100% sample) and 12G5-antibody competition assay was performed. […] Afterwards cells were washed again and analyzed for bound antibody.
(§1) Statistical analysis was performed in GraphPad Prism (version 8.3.0). IC50 and IC90 curves and the areas under the curves (AUC) were determined by nonlinear regression.

in vitro = in vitro ADME, human; settings: for half-life at 20 µM: 20 µM in whole EDTA blood of an individual donor, 37 °C, read-out: half-life t1/2 in blood
Experimental: Compounds were 150-fold diluted in human plasma or whole human blood to reach final concentrations of 20 µM. The t = 0 sample was immediately taken and stored at − 80 °C. Plasma/compound or blood/compound mixture was then transferred to 37 °C and shook at 350 rpm. At given time points samples were taken and stored at − 80 °C. For measuring the functional activity of the plasma/peptide samples, the mixtures were thawed and serially diluted in ice cold PBS (starting with 100% sample). 12G5-APC antibody competition was then performed as described before. Note, that during the competition process the samples are 1:1 diluted with the antibody and the highest plasma concentration on cells was 50%. For blood/peptide functional stability, samples were thawed and centrifuged at 14,000 rpm for 3 min at 4 °C to remove cells and debris. The supernatant was then serially diluted in PBS (starting with 100% sample) and 12G5-antibody competition assay was performed. After the 2 h incubation, the cells were washed by centrifugation (1.300 rpm, 4 °C) and 50 µL of 1-step-Fix/Lyse solution (Thermo Fisher #00-5333-54) was added for 15 min at room temperature. Afterwards cells were washed again and analyzed for bound antibody.
Statistical analysis was performed in GraphPad Prism (version 8.3.0). IC50 and IC90 curves and the areas under the curves (AUC) were determined by nonlinear regression. For half-life calculations, the IC50 values for each time point as well as the AUCs were analyzed and normalized relative to t = 0. Activities were then determined ((IC50 (t = 0) / IC50 (t)) × 100) for each time point and half-lives determined by a One-Phase-Decay model.

CXCR7 = settings: cited from earlier work
CXCR4 = CXCR4 (Homo sapiens, UniProt P61073); experiment: 12G5 antibody competition assay on SupT1 cells; type: binding; settings: for IC50: APC-labelled 12G5, 2 h at 4 °C, mean ± SEM of 3 assays; for Ki: calculated from IC50 12G5 by Cheng-Prusoff, Kd of 12G5 151.5 pM
Experimental: Compounds were serially diluted in ice cold PBS and 12G5-APC antibody was diluted in cold PBS containing 1% FCS. […] Plates were incubated at 4 °C in the dark for 2 h. Afterwards cells were washed twice by centrifugation with PBS containing 1% FCS and fixed with 2% paraformaldehyde (PFA). During all pipetting steps, plates were kept cool by using a cooling pad. Antibody binding was analyzed by flow cytometry (FACS CytoFLEX; Beckman Coulter) by determination of the mean fluorescence intensity (MFI) of at least 5.000 cells (50.000 cells per well) or 1.000 cells (5.000 cells per well).
Ki calculation3 Ki=IC50/1+L/Kd
For Ki = inhibitory constant; IC50 = half maximal inhibition for 12G5 binding; [L] = 12G5 concentration; Kd = dissociation constant of 12G5.
as §1

CXCL12 migration = settings: cited from earlier work
[2] = EPI-X4 sandwich ELISA; cited from earlier work
CXCR4-tropic HIV-1 [3] = settings: TZM-bl cells; for IC50: read-out: IC50 HIV-1
SupT1 cells [4] = settings: read-out: IC50 Migration
[5] = target: C-X-C chemokine receptor type 4 (CXCR4) (human (endogenous in SupT1)) (UniProt P61073)
SupT1 cells [6] = experiment: cells; settings: Homo sapiens, SUP-T1, 4 h, read-out: IC50 Migration
CXCR4-tropic HIV-1 [7] = experiment: microbe, parasite or virus in culture; settings: Human immunodeficiency virus 1, TZM-bl, 72 h, read-out: IC50 HIV-1
[8] = administered AMD3100; cited from earlier work
[9] = target: T1, C-X-C chemokine receptor type 4 (CXCR4) (human (endogenous in SupT1)), P61073
T1 chain: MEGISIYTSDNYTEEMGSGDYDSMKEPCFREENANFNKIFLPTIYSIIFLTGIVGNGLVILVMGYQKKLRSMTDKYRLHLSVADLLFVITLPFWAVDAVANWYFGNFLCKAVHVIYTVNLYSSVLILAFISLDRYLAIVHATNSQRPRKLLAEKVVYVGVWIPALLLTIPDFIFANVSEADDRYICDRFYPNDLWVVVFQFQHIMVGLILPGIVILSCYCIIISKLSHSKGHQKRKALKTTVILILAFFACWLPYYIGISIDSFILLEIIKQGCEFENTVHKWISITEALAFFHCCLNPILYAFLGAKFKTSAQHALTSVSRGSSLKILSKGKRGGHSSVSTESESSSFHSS

[10] = target: T1, C-X-C chemokine receptor type 4 (CXCR4) …; experiment: flow cytometry on cells; competition with APC-labelled anti-CXCR4 antibody 12G5 (0.245 nM final) on SupT1 cells (5000 cells per well for Ki, or 50,000); compounds in PBS, antibody in PBS with 1% FCS; 2 h at 4 °C in the dark; Ki calculated from IC50 by the Cheng-Prusoff transformation with the Kd of 12G5 (151.5 pM)
[11] = target: T2, C-X-C chemokine receptor type 4 (CXCR4) (human (endogenous in SupT1), UniProt P61073 1-352); experiment: as above; settings: one partner purified
T2 construct: CXCR4, G protein-coupled receptor, 352 amino acid cell surface protein; endogenous on SupT1 cells; About 29,000 CXCR4 molecules per SupT1 cell by quantitative flow cytometry; also called CXC chemokine receptor 4; CD184; source: endogenous, on SupT1 cells

[12] = target: T2, C-X-C chemokine receptor type 4 (CXCR4); experiment: cell-based or functional assay
[13] = 20 µM in plasma of an individual donor
[14] = 20 µM in pooled human plasma (6 donors), from IC50 relative to t = 0, one-phase decay
[15] = infection rate after 3 days, mean ± SEM of 3 assays
[16] = 20 µM in pooled human plasma, Fig. 4a

CC[C@H](C)[C@H](N)C(=O)N[C@H](C(=O)N[C@@H](CCCNC(=N)N)C(=O)N[C@@H](Cc1c[nH]c2ccccc12)C(=O)N[C@@H](CO)C(=O)N[C@@H](CCCCN)C(=O)N[C@@H](CCCCN)C(=O)N[C@H](C(=O)N1CCC[C@H]1C(=O)N[C@@H](CSSC[C@H](NC(=O)[C@@H]1CCCN1C(=O)[C@@H](NC(=O)[C@H](CCCCN)NC(=O)[C@H](CCCCN)NC(=O)[C@H](CO)NC(=O)[C@H](Cc1c[nH]c2ccccc12)NC(=O)[C@H](CCCNC(=N)N)NC(=O)[C@@H](NC(=O)[C@@H](N)[C@@H](C)CC)C(C)C)C(C)C)C(=O)N[C@H](C(=O)N[C@@H](CO)C(=O)O)C(C)C)C(=O)N[C@H](C(=O)N[C@@H](CO)C(=O)O)C(C)C)C(C)C)C(C)C [EPI-X4 WSC02x2] (I: H-IVRWSKKVPCVS-OH / II: H-IVRWSKKVPCVS-OH; disulfide I:10-II:10; N-terminus and C-terminus assumed)
half-life at 20 µM [1, 13]: ~3 h
half-life at 20 µM [1, 14]: 3.22 h
half-life at 20 µM ([1]; human plasma, value in discussion): > 3 h
fold more stable than WSC02 in plasma ([1]; pooled human plasma, ratio of t1/2): 19 fold
half-life at 20 µM (in vitro; human): 1.33 h
stability in blood compared to plasma (in vitro; human, plasma): less stable in blood compared to plasma

LVRYTKKVPQVSTPTL [EPI-X4]
CXCR7 binding (CXCR7): does not bind CXCR7
IC50 (CXCR4; SupT1 cells): 1780 ± 162 nM
Ki (CXCR4): 677 ± 62 nM
IC50 to suppress CXCL12 migration (CXCL12 migration): median micromolar range
half-life in plasma [2]: 17 min and ~ 17 min
IC50 (CXCR4-tropic HIV-1 [3]): 31000 nM
IC50 (CXCR4-tropic HIV-1 [3]; [15]): 31400 nM
half-life at 20 µM [1, 14]: 0.383 h

CC1(C)CN2C(CSC(=NC3CCCCC3)NC3CCCCC3)=CSC2=N1 [IT1t]
IC50 (SupT1 cells [4]): 230 ± 20 nM
IC50 (CXCR4-tropic HIV-1 [3]; [15]): 5 ± 0.9 nM
half-life t1/2 in plasma [1, 13]: ca. 480 min
12G5-competing activity after incubation in plasma ([1]; 20 µM in pooled human plasma): remained fully active
half-life t1/2 in plasma [1, 16]: < 24 h
ability to block 12G5 binding after incubation in plasma [1]: moderately impaired
ability to block 12G5 binding after incubation in whole blood (in vitro): moderately impaired

EPI-X4 (Endogenous Peptide Inhibitor of CXCR4)
IC50 of inhibition of infection of TZM-bl reporter cells by CXCR4-tropic HIV-1 (NL4-3), β-galactosidase assay [5]: 31400 nM

c1cc(CN2CCCNCCNCCCNCC2)ccc1CN1CCCNCCNCCCNCC1 [AMD3100, AMD3100 octahydrochloride hydrate]
IC50 (SupT1 cells [6]): 60 ± 13 nM
IC50 (CXCR4-tropic HIV-1 [7]): 36 ± 6 nM
fraction bound to plasma proteins [8]: 58%
12G5-competing activity after incubation in plasma ([1]; 20 µM in pooled human plasma): remained fully active
half-life at 20 µM [1, 13]: > 24 h
half-life at 20 µM [1, 16]: > 48 h
half-life at 20 µM ([1]; 20 µM in pooled human plasma, Fig. S5a, no unit at the value, time axis in min, estimated by eye): > 24 h
ability to block 12G5 binding after incubation in plasma [1]: remained fully active
ability to block 12G5 binding after incubation in whole blood (in vitro): remained fully active
half-life at 20 µM (in vitro; human): > 24 h

NCCCCN(Cc1nc2ccccc2[nH]1)[C@H]1CCCc2cccnc21 [AMD070]
IC50 (SupT1 cells [6]): 152 ± 3 nM
IC50 (CXCR4-tropic HIV-1 [7]): 23 ± 4 nM

c1cnc(NCc2ccc(CNc3ncccn3)cc2)nc1 [MSX-122]
IC50 (CXCR4-tropic HIV-1 [7]): > 10000 nM
effect on 12G5 binding (CXCR4; SupT1 cells): did not interfere with 12G5 binding
IC50 (CXCR4; SupT1 cells): > 100000 nM
effect on CXCR4-tropic HIV-1 infection (CXCR4-tropic HIV-1 [3]): not affecting

CC(C)NCCCC[C@H](NC(=O)[C@H]1CCC(=O)N[C@@H](Cc2ccccc2)C(=O)N[C@@H](Cc2ccc(O)cc2)C(=O)N[C@@H](CCCCNC(C)C)C(=O)N[C@H](CCCNC(=N)N)C(=O)N[C@@H](Cc2ccc3ccccc3c2)C(=O)NCC(=O)N1)C(N)=O [LY2510924] (FY[Lys(iPr)][dR][2Nal]G[dE][Lys(iPr)]-NH2; lactam N-7)
IC50 (SupT1 cells [4]; 100 ng/mL CXCL12, 4 h, mean ± SEM of 3 assays): 66 ± 8 nM
IC50 (CXCR4; SupT1 cells): 151 ± 78 nM
Ki (CXCR4): 58 ± 30 nM
IC50 (CXCR4-tropic HIV-1 [3]; [15]): 8 ± 0.8 nM

B1: EPI-X4 WSC02 (peptide)
chain: IVRWSKKVPCVS
modifications: not checked
IC50 of inhibition of SupT1 cell migration towards CXCL12 (100 ng/mL, transwell); the pair antagonized is CXCL12 with CXCR4 [9]: 15800 nM
IC50 of inhibition of infection of TZM-bl reporter cells by CXCR4-tropic HIV-1 (NL4-3), β-galactosidase assay [9]: 257 nM
IC50 [10]: 290 nM
Ki [10]: 111 nM

B2: EPI-X4 WSC02x2 (peptide)
chain: IVRWSKKVPCVS
modifications: also: homodimer via intermolecular disulfide, disulfide at 10, other end not in the chain
IC50 [11]: 182 nM
Ki [11]: 69 ± 12 nM
IC50 of inhibition of SupT1 cell migration towards CXCL12 (100 ng/mL, transwell); the pair antagonized is CXCL12 with CXCR4 [12]: 2670 nM
IC50 of inhibition of infection of TZM-bl reporter cells by CXCR4-tropic HIV-1 (NL4-3), β-galactosidase assay [12]: 254 nM
